Reference: patent US20250026748A1, “N-(5-SUBSTITUTED-[(1,3,4-THIADIAZOLYL) OR (THIAZOLYL)])(SUBSTITUTED)CARBOXAMIDE COMPOUNDS AND USE THEREOF FOR INHIBITING HUMAN POLYMERASE THETA” (Repare Therapeutics Inc., priority 2021, published 2025)

Biological target: PolQ ATPase enzyme (1-894) (Homo sapiens (Human), UniProt O75417)
Assay: Polθ ATPase enzymatic assay (0.5 nM enzyme concentration), ADP-Glo
Type: biochemical
Details: average IC50; 0.5 nM PolQ ATPase enzyme (1-894)
Experimental: PolQ ATPase enzyme (1-894) at 0.5 nM is incubated with a 10-point concentration response of inhibitors for 15 min at rt in the following buffer: 50 mM Tris Cl pH 7.5, 10% glycerol, 5 mM DTT, 10 mM MgCl2, 0.1 mg/ml BSA. Following pre-incubation with inhibitors, DNA (Fork C) at 20 nM and ATP at 100 μM are added to start the reaction. Enzymatic reaction proceeds at rt for 180 min ATP consumption is measured using the ADP-Glo assay from Promega. Luminescence is read on the Envision and IC50 are determined using the variable slope 4-parameters equation.
Oligos are annealed by heating at 9500 for 5 min in the following buffer (10 mM Tris-HCl pH7.5, 50 mM NaCl, 1 mM EDTA) and cooled to rt. […]

Chain of PolQ ATPase enzyme (1-894) (O75417 1-894): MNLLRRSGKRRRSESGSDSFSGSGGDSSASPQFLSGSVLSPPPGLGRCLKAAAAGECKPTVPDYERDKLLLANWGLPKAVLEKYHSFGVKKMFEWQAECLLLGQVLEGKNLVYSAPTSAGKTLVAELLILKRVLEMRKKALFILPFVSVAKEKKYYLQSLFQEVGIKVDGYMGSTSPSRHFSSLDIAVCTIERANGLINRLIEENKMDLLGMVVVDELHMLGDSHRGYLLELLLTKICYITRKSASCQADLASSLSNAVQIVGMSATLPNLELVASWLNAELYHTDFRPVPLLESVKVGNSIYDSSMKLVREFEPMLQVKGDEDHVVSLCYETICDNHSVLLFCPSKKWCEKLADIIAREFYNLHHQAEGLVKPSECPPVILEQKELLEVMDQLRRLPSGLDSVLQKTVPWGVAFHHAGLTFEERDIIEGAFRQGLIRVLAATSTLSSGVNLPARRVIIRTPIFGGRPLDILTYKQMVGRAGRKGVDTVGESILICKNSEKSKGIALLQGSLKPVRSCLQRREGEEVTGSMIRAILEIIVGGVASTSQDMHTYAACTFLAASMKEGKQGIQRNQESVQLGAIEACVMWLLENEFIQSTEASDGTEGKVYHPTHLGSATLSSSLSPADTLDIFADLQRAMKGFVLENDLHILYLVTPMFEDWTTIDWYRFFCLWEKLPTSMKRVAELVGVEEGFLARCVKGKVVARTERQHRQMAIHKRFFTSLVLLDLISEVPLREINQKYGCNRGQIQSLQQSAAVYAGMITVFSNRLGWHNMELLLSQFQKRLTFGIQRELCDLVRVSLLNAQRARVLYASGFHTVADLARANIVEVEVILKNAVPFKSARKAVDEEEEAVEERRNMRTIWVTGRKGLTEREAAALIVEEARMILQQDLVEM

| IC50 [nM] | SMILES |
| --- | --- |
| 4 | COc1cnc(C(F)F)cc1-c1cc(N2CCN(C)C(=O)C2)ncc1C(=O)Nc1nnc(C#CC2CC2)s1 [Compound 128] |
| 1.6 | COc1cnc(C(F)F)cc1-c1cc(N2CC3(CC(C(=O)N(C)C)C3)C2)ncc1C(=O)Nc1nnc(C#CC2CC2)s1 [Compound 129] |
| 2.1 | COc1cnc(C(F)F)cc1-c1cc(N2CC3(C2)CC(C)(O)C3)ncc1C(=O)Nc1nnc(C#CC2CC2)s1 [Compound 130, N-(5-(cyclopropylethynyl)-1,3,4-thiadiazol-2-yl)-2′-(difluoromethyl)-6-(6-hydroxy-6-methyl-2-azaspiro[3.3]heptan-2-yl)-5′-methoxy-[4 4′-bipyridine]-3-carboxamide] |
| < 0.25 | COc1cnc(C(F)F)cc1-c1cc(N2CCn3nccc3C2=O)ncc1C(=O)Nc1nnc(C#CC2CC2)s1 [Compound 133] |
| < 0.25 | COc1cnc(C(F)F)cc1-c1cc(-c2cnn(CCO)c2)ccc1C(=O)Nc1nnc(C#CC2CC2)s1 [Compound 134] |
| < 0.25 | COc1cnc(C(F)F)cc1-c1cc(-c2ccncn2)ncc1C(=O)Nc1nnc(C#CC2CC2)s1 [Compound 135] |
| 8.5 | COc1cnc(C(F)F)cc1-c1cc(N(C)Cc2cnn(C)c2)ccc1C(=O)Nc1nnc(C#CC2CC2)s1 [Compound 136] |
| 0.26 | COc1cnc(C(F)F)cc1-c1cc(N2CCN(C(C)=O)CC2=O)ccc1C(=O)Nc1nnc(C#CC2CC2)s1 [Compound 137] |
| 61 | COc1cnc(C(F)F)cc1-c1cc(-c2ccn(C)n2)cnc1C(=O)Nc1ncc(C#CC2CC2)s1 [Compound 139, N-(5-(cyclopropylethynyl)thiazol-2-yl)-2′-(difluoromethyl)-5′-methoxy-5-(1-methyl-1H-pyrazol-3-yl)-[3,4′-bipyridine]-2-carboxamide] |
| < 0.25 | COc1cnc(C(F)F)cc1-c1cc(N2CCC(C)CC2=O)ncc1C(=O)Nc1nnc(C#CC2CC2)s1 (stereo not drawn) [Compound 141] |
| < 0.25 | COc1cnc(C(F)F)cc1-c1cc(N2CCC3CC3C2=O)ncc1C(=O)Nc1nnc(C#CC2CC2)s1 (stereo not drawn) [Compound 142] |
| < 0.25 | COc1cnc(C(F)F)cc1-c1cc(N2CCNCC2=O)ccc1C(=O)Nc1nnc(C#CC2CC2)s1 [Compound 143] |
| 0.26 | COc1cnc(C(F)F)cc1-c1cc(N2CCN(C(=O)OC(C)(C)C)CC2=O)ccc1C(=O)Nc1nnc(C#CC2CC2)s1 [Compound 144] |
| < 0.25 | COc1cnc(C(F)F)cc1-c1cc(-c2cc[nH]n2)ncc1C(=O)Nc1nnc(C#CC2CC2)s1 [Compound 145, N-(5-(cyclopropylethynyl)-1,3,4-thiadiazol-2-yl)-2′-(difluoromethyl)-5′-methoxy-6-(1H-pyrazol-3-yl)-[4,4′-bipyridine]-3-carboxamide] |
| < 0.25 | COc1cnc(C(F)F)cc1-c1cc(C#CC2CCCOC2)ncc1C(=O)Nc1nnc(C#Cc2cc(C)[nH]n2)s1 (stereo not drawn) [Compound 146] |
| 0.31 | COc1cnc(C(F)F)cc1-c1cc(OC[C@@H]2CCC(=O)N2C)ncc1C(=O)Nc1nnc(C#CC2CC2)s1 [Compound 147] |
| 0.93 | COc1cnc(C(F)F)cc1-c1cc(OC[C@@H]2CCOC2)ncc1C(=O)Nc1nnc(C#CC2CC2)s1 [Compound 148] |
| 0.37 | COc1cnc(C(F)F)cc1-c1cc(OC[C@H]2CCOC2)ncc1C(=O)Nc1nnc(C#CC2CC2)s1 [Compound 149] |
| < 0.25 | COc1cnc(C(F)F)cc1-c1cc(OCC2CCOCC2)ncc1C(=O)Nc1nnc(C#CC2CC2)s1 [Compound 150, N-(5-(cyclopropylethynyl)-1,3,4-thiadiazol-2-yl)-2′-(difluoromethyl)-5′-methoxy-6-((tetrahydro-2H-pyran-4-yl)methoxy)-[4,4′-bipyridine]-3-carboxamide] |
| < 0.25 | COc1cnc(C(F)F)cc1-c1cc(C#CC2(C)CCCO2)ncc1C(=O)Nc1nnc(C#CC2CC2)s1 (stereo not drawn) [Compound 151] |
| < 0.25 | COc1cnc(C(F)F)cc1-c1cc(-c2nnc(C)o2)ccc1C(=O)Nc1nnc(C#Cc2cc(C)[nH]n2)s1 [Compound 153] |
| < 0.25 | COc1cnc(C(F)F)cc1-c1cc(N2CCOC3(CC3)C2=O)ncc1C(=O)Nc1nnc(C#CC2CC2)s1 [Compound 158] |
| 0.79 | COc1cnc(C(F)F)cc1-c1cc(NCCOCC(=O)O)ncc1C(=O)Nc1nnc(C#CC2CC2)s1 [Compound 159] |
| 13 | COc1cnc(C(F)F)cc1-c1cc(N2CC3(COC3)C2)ncc1C(=O)Nc1nnc(C#CC2CC2)s1 [Compound 162] |
| < 0.25 | COc1cnc(C(F)F)cc1-c1cc(-n2ccncc2=O)ccc1C(=O)Nc1nnc(C#CC2CC2)s1 [Compound 163] |

| IC50 [nM] | SMILES |
| --- | --- |
| 289 | COc1cnc(C(F)F)cc1-c1cc(-c2nnc(C)o2)ccc1C(=O)Nc1nc(C)c(C#CC2CC2)s1 [Compound 164] |
| < 0.25 | COc1cnc(C(F)F)cc1-c1cc(N2CCCOC2=O)ncc1C(=O)Nc1nnc(C#CC2CC2)s1 [Compound 167] |
| 0.34 | COc1cnc(C(F)F)cc1-c1cc(-c2nnc(C)o2)ccc1C(=O)Nc1nnc(C2C[C@H]2c2ccc(C#N)cc2)s1 (stereo partly drawn) [Compound 168] |
| 1.5 | COc1cnc(C(F)F)cc1-c1cc(-c2cnccn2)ncc1C(=O)Nc1nnc(C#CC2CC2)s1 [Compound 172] |
| 0.41 | COc1cnc(C(F)F)cc1-c1cc(N2CCO[C@H](C)C2=O)ncc1C(=O)Nc1nnc(C#CC2CC2)s1 [Compound 173] |
| < 0.25 | COc1cnc(C(F)F)cc1-c1cc(N2CCO[C@@H](C)C2=O)ncc1C(=O)Nc1nnc(C#CC2CC2)s1 [Compound 174] |
| 23 | COc1cnc(C(F)F)cc1-c1cc(N2CCOCC2=O)ncc1C(=O)Nc1nnc(C#Cc2ccc(Cl)cc2)s1 [Compound 176] |
| 0.39 | C#C[C@@H]1C[C@H]1c1nnc(NC(=O)c2ccc(N3CCOCC3=O)cc2-c2cc(C(F)F)ncc2OC)s1 [Compound 177] |
| < 0.25 | COc1cnc(C(F)F)cc1-c1cc(CC#N)ncc1C(=O)Nc1nnc(C#Cc2ccc(Cl)cc2)s1 [Compound 178] |
| 1.6 | COc1cnc(C(F)F)cc1-c1cc(CC(=O)N(C)C)ncc1C(=O)Nc1nc(C)c(C#CC2CC2)s1 [Compound 179] |
| 4.6 | COc1cnc(C(F)F)cc1-c1cc(OCC2CC2)ncc1C(=O)Nc1nnc(C#CC2CC2)s1 [Compound 180] |
| 0.75 | COc1cnc(C(F)F)cc1-c1cc(OCCOC(F)F)ncc1C(=O)Nc1nnc(C#CC2CC2)s1 [Compound 181] |
| 1.2 | COc1cnc(C(F)F)cc1-c1cc(OC2CCN(C)C2=O)ncc1C(=O)Nc1nnc(C#CC2CC2)s1 (stereo not drawn) [Compound 182] |
| 0.45 | COc1cnc(C(F)F)cc1-c1cc(C#CC(C)(C)C#N)ncc1C(=O)Nc1nnc(C#CC2CC2)s1 [Compound 184] |
| < 0.25 | COc1cnc(C(F)F)cc1-c1cc(C#Cc2cnn(C)c2)ncc1C(=O)Nc1nnc(C#CC2CC2)s1 [Compound 185] |
| 0.79 | COc1cnc(C(F)F)cc1-c1cc(OC[C@H]2CCCO2)ncc1C(=O)Nc1nnc(C#CC2CC2)s1 [Compound 186] |
| 0.91 | COc1cnc(C(F)F)cc1-c1cc(-c2cn(C)cn2)ncc1C(=O)Nc1nnc(C#CC2CC2)s1 [Compound 187] |
| 1.9 | COc1cnc(C(F)F)cc1-c1cc(-c2cnn(C3CCOCC3)c2)ccc1C(=O)Nc1nnc(C#CC2CC2)s1 [Compound 188] |
| < 0.25 | COc1cnc(C(F)F)cc1-c1cc(C#CCN2CCOC[C@H]2C)ncc1C(=O)Nc1nnc(C#CC2CC2)s1 [Compound 189] |
| 5.8 | C#C[C@H]1C[C@@H]1c1nnc(NC(=O)c2cnc(CC#N)cc2-c2cc(C(F)F)ncc2OC)s1 [Compound 190] |
| 15 | COc1cnc(C(F)F)cc1-c1cc(N2CCCC2=O)ncc1C(=O)Nc1ncc(C#CC2CC2)s1 [Compound 191] |
| 0.33 | COc1cnc(C(F)F)cc1-c1cc(N2CCCCC2=O)ncc1C(=O)Nc1nnc(C#CC2CC2)s1 [Compound 192] |
| 2.5 | COc1cnc(C(F)F)cc1-c1cc(CC#N)ccc1C(=O)Nc1ncc(C#CC2CC2)s1 [Compound 193] |
| 0.61 | COc1cnc(C(F)F)cc1-c1cc(N2CCN(C)CC2=O)ncc1C(=O)Nc1nnc(C#CC2CC2)s1 [Compound 194] |
| < 0.25 | COc1cnc(C(F)F)cc1-c1cc(CC(=O)N2CC(F)(F)C2)ccc1C(=O)Nc1nnc(C#CC2CC2)s1 [Compound 195] |

| SMILES | IC50 [nM] |
| --- | --- |
| COc1cnc(C(F)F)cc1-c1cc(-c2nnc(C)s2)ccc1C(=O)Nc1nnc(C#CC2CC2)s1 [Compound 138] | < 0.25 |
| COc1cnc(C(F)F)cc1-c1cc(Nc2nnc(C)o2)ccc1C(=O)Nc1nnc(C#CC2CC2)s1 [Compound 152] | 1.2 |
| C#C[C@@H]1CC1c1nnc(NC(=O)c2cnc(-c3ccn(C)n3)cc2-c2cc(C(F)F)ncc2OC)s1 (stereo partly drawn) [Compound 154] | < 0.25 |
| COc1cnc(C(F)F)cc1-c1cc(-c2ccn(C)n2)cnc1C(=O)Nc1nnc(C#CC2CC2)s1 [Compound 156] | 1.1 |
| COc1cnc(C(F)F)cc1-c1cc(-c2ccn(C)n2)ncc1C(=O)Nc1nc(C)c(C#CC2CC2)s1 [Compound 157] | 115 |
| COc1cnc(C(F)F)cc1-c1cc(-c2ccn(C)n2)ncc1C(=O)Nc1nnc(C#Cc2cc(C)[nH]n2)s1 [Compound 161] | < 0.25 |
| COc1cnc(C(F)F)cc1-c1cc(Nc2ccn(C)n2)ccc1C(=O)Nc1nnc(C#CC2CC2)s1 [Compound 166] | 0.52 |
| COc1cnc(C(F)F)cc1-c1cc(Oc2ccn(C)n2)ncc1C(=O)Nc1nnc(C#CC2CC2)s1 [Compound 175] | 0.51 |
| COc1cnc(C(F)F)cc1-c1cc(OCc2ccn(C)n2)ncc1C(=O)Nc1nnc(C#CC2CC2)s1 [Compound 183] | 0.49 |
| COc1cnc(C(F)F)cc1-c1cc(C#Cc2cn[nH]c2)ncc1C(=O)Nc1nnc(C#CC2CC2)s1 [Compound 196] | < 0.25 |
